Results as given in patent US6358885B1, “Substituted phenylheterocyclic herbicides” (Mississippi State University, priority 1992, dated 2002).

Experiments:
wild oat = assay: Test B preemergence/postemergence greenhouse plant response rating 0 to 10; format: in vivo, Avena fatua; settings: for Plant response rating, Wild oat: 0 to 10 scale
Summary of the method: (§1)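 Postemergence treatment of plants two to eighteen cm tall ran alongside preemergence treatment of planted seed, each using compound in a non-phytotoxic solvent.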

barnyardgrass = assay: Test C flood test plant response rating 0 to 100; format: in vivo, Echinochloa crus-galli
Summary of the method: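 Compounds in non-phytotoxic solvent applied preemergence to sandy loam one day after planting, postemergence at the 1–4 leaf stage, or to ~2.5 cm floodwater over silt loam.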

blackgrass [1] = assay: Test C preemergence/postemergence greenhouse plant response rating 0 to 100; format: in vivo, Alopecurus myosuroides; settings: for Plant response rating, Blackgrass: 125 g/ha, 0 to 100 scale
Summary of the method: (§2)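 Compounds in non-phytotoxic solvent went onto sandy loam before emergence (seeded one day earlier) or onto plants at the one-to-four leaf stage. Duck salad was treated via flood water (~2.5 cm, maintained) over silt loam.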

pigweed = assay: as above; format: in vivo, Amaranthusretroflexus; settings: for Plant response rating Pigweed: 125 g/ha, 0 to 100 scale
Summary of the method: as §2

wheat = assay: as above; format: in vivo, Triticum aestivum; settings: for Plant response rating, Wheat: 125 g/ha, 0 to 100 scale
Summary of the method: as §2

ryegrass = assay: as above; format: in vivo, Lolium multiflorum; settings: for Plant response rating Ryegrass: 125 g/ha, 0 to 100 scale
Summary of the method: as §2

bedstraw = assay: Test B preemergence/postemergence greenhouse plant response rating 0 to 10; format: in vivo, Galium aparine; settings: for Plant response rating, Bedstraw: 0 to 10 scale
Summary of the method: as §1

morningglory = assay: as above; format: in vivo, Ipomoea hederacea; settings: for Plant response rating, Morningglory: 0 to 10 scale
Summary of the method: as §1

cocklebur = assay: as above; format: in vivo, Xanthium pensylvanicum; settings: for Plant response rating, Cocklebur: 0 to 10 scale
Summary of the method: as §1

sugar beet = assay: as above; format: in vivo, Beta vulgaris; settings: for Plant response rating, Sugar beet: 0 to 10 scale
Summary of the method: as §1

cotton = assay: Test C preemergence/postemergence greenhouse plant response rating 0 to 100; format: in vivo, Gossypium hirsutum; settings: for Plant response rating, Cotton: 125 g/ha, 0 to 100 scale
Summary of the method: as §2

blackgrass [2] = assay: Test B preemergence/postemergence greenhouse plant response rating 0 to 10; format: in vivo, Alopecurus myosuroides; settings: for Plant response rating, Blackgrass: 0 to 10 scale
Summary of the method: as §1

## COCOc1cc(-c2nn3c(c2Cl)CCCC3)c(F)cc1Cl [Compound 58]
Wild oat; POSTEMERGENCE, Rate 50 g/ha
  Plant response rating, Wild oat: 7
Wild oat; PREEMERGENCE, Rate 50 g/ha
  Plant response rating, Wild oat: 6
Wild oat; PREEMERGENCE, Rate 200 g/ha
  Plant response rating (0 to 10 scale), Wild oat: 9
Wild oat; Rate 200 g/ha, POSTEMERGENCE
  Plant response rating, Wild oat: 9
barnyardgrass; POSTEMERGENCE section, flood test, Rate 2 g/ha
  Plant response rating (0 to 100), Barnyardgrass 2: 0
barnyardgrass; Rate 8 g/ha, under POSTEMERGENCE head (flood test species)
  Plant response rating (0 to 100), Barnyardgrass 2: 95
barnyardgrass; Rate 31 g/ha, under POSTEMERGENCE head (flood test species)
  Plant response rating (0 to 100), Barnyardgrass 2: 100
barnyardgrass; flood test species listed under POSTEMERGENCE, 125 g/ha, 0 to 100 scale
  Plant response rating Barnyardgrass 2: 100
Blackgrass [1]; POSTEMERGENCE
  Plant response rating, Blackgrass: 85
Blackgrass [1]; POSTEMERGENCE, Rate 2 g/ha
  Plant response rating (0 to 100), Blackgrass: 20
Blackgrass [1]; PREEMERGENCE
  Plant response rating, Blackgrass: 70
Blackgrass [1]; PREEMERGENCE, Rate 2 g/ha
  Plant response rating (0 to 100), Blackgrass: 0
Blackgrass [1]; Rate 8 g/ha, POSTEMERGENCE
  Plant response rating (0 to 100), Blackgrass: 50
Blackgrass [1]; Rate 8 g/ha, PREEMERGENCE
  Plant response rating (0 to 100), Blackgrass: 20
Blackgrass [1]; Rate 31 g/ha, POSTEMERGENCE
  Plant response rating (0 to 100), Blackgrass: 65
Blackgrass [1]; Rate 31 g/ha, PREEMERGENCE
  Plant response rating (0 to 100), Blackgrass: 60
pigweed; POSTEMERGENCE
  Plant response rating Pigweed: 100
pigweed; POSTEMERGENCE, Rate 2 g/ha
  Plant response rating (0 to 100), Pigweed: 90
pigweed; PREEMERGENCE
  Plant response rating Pigweed: 100
pigweed; PREEMERGENCE, Rate 2 g/ha
  Plant response rating (0 to 100), Pigweed: 0
pigweed; Rate 8 g/ha, POSTEMERGENCE
  Plant response rating (0 to 100), Pigweed: 100
pigweed; Rate 8 g/ha, PREEMERGENCE
  Plant response rating (0 to 100), Pigweed: 100
pigweed; Rate 31 g/ha, POSTEMERGENCE
  Plant response rating (0 to 100), Pigweed: 100
pigweed; Rate 31 g/ha, PREEMERGENCE
  Plant response rating (0 to 100), Pigweed: 100
wheat; POSTEMERGENCE
  Plant response rating, Wheat: 60
wheat; POSTEMERGENCE, Rate 2 g/ha
  Plant response rating (0 to 100), Wheat: 30
wheat; PREEMERGENCE
  Plant response rating, Wheat: 30
wheat; PREEMERGENCE, Rate 2 g/ha
  Plant response rating (0 to 100), Wheat: 0
wheat; Rate 8 g/ha, POSTEMERGENCE
  Plant response rating (0 to 100), Wheat: 40
wheat; Rate 8 g/ha, PREEMERGENCE
  Plant response rating (0 to 100), Wheat: 0
wheat; Rate 31 g/ha, POSTEMERGENCE
  Plant response rating (0 to 100), Wheat: 50
wheat; Rate 31 g/ha, PREEMERGENCE
  Plant response rating (0 to 100), Wheat: 10
ryegrass; POSTEMERGENCE
  Plant response rating Ryegrass: 85
ryegrass; POSTEMERGENCE, Rate 2 g/ha
  Plant response rating (0 to 100), Ryegrass: 10
ryegrass; PREEMERGENCE
  Plant response rating Ryegrass: 100
ryegrass; PREEMERGENCE, Rate 2 g/ha
  Plant response rating (0 to 100), Ryegrass: 0
ryegrass; Rate 8 g/ha, POSTEMERGENCE
  Plant response rating (0 to 100), Ryegrass: 30
ryegrass; Rate 8 g/ha, PREEMERGENCE
  Plant response rating (0 to 100), Ryegrass: 0
ryegrass; Rate 31 g/ha, POSTEMERGENCE
  Plant response rating (0 to 100), Ryegrass: 60
ryegrass; Rate 31 g/ha, PREEMERGENCE
  Plant response rating (0 to 100), Ryegrass: 50
bedstraw; POSTEMERGENCE, Rate 50 g/ha
  Plant response rating, Bedstraw: 10
bedstraw; PREEMERGENCE, Rate 50 g/ha
  Plant response rating, Bedstraw: 6
bedstraw; PREEMERGENCE, Rate 200 g/ha
  Plant response rating (0 to 10 scale), Bedstraw: 9
bedstraw; Rate 200 g/ha, POSTEMERGENCE
  Plant response rating, Bedstraw: 9
morningglory; POSTEMERGENCE, Rate 50 g/ha
  Plant response rating, Morningglory: 9
morningglory; PREEMERGENCE, Rate 50 g/ha
  Plant response rating, Morningglory: 4
morningglory; PREEMERGENCE, Rate 200 g/ha
  Plant response rating (0 to 10 scale), Morningglory: 4
morningglory; Rate 200 g/ha, POSTEMERGENCE
  Plant response rating, Morningglory: 10
cocklebur; POSTEMERGENCE, Rate 50 g/ha
  Plant response rating, Cocklebur: 6
cocklebur; PREEMERGENCE, Rate 50 g/ha
  Plant response rating, Cocklebur: 0
cocklebur; PREEMERGENCE, Rate 200 g/ha
  Plant response rating (0 to 10 scale), Cocklebur: 9
cocklebur; Rate 200 g/ha, POSTEMERGENCE
  Plant response rating, Cocklebur: 10
Sugar beet; POSTEMERGENCE, Rate 50 g/ha
  Plant response rating, Sugar beet: 10
Sugar beet; PREEMERGENCE, Rate 50 g/ha
  Plant response rating, Sugar beet: 9
Sugar beet; PREEMERGENCE, Rate 200 g/ha
  Plant response rating (0 to 10 scale), Sugar beet: 10
Sugar beet; Rate 200 g/ha, POSTEMERGENCE
  Plant response rating, Sugar beet: 10
cotton; POSTEMERGENCE
  Plant response rating, Cotton: 100
cotton; POSTEMERGENCE, Rate 2 g/ha
  Plant response rating (0 to 100), Cotton: 95
cotton; PREEMERGENCE
  Plant response rating, Cotton: 40
cotton; PREEMERGENCE, Rate 2 g/ha
  Plant response rating (0 to 100), Cotton: 0
cotton; Rate 8 g/ha, POSTEMERGENCE
  Plant response rating (0 to 100), Cotton: 100
cotton; Rate 8 g/ha, PREEMERGENCE
  Plant response rating (0 to 100), Cotton: 0
cotton; Rate 31 g/ha, POSTEMERGENCE
  Plant response rating (0 to 100), Cotton: 100
cotton; Rate 31 g/ha, PREEMERGENCE
  Plant response rating (0 to 100), Cotton: 10
Blackgrass [2]; POSTEMERGENCE, Rate 50 g/ha
  Plant response rating, Blackgrass: 6
Blackgrass [2]; PREEMERGENCE, Rate 50 g/ha
  Plant response rating, Blackgrass: 4
Blackgrass [2]; PREEMERGENCE, Rate 200 g/ha
  Plant response rating (0 to 10 scale), Blackgrass: 7
Blackgrass [2]; Rate 200 g/ha, POSTEMERGENCE
  Plant response rating, Blackgrass: 7
